# Laboratory results as given in ChEMBL document CHEMBL3763124, “N-Benzylbenzamides: A Novel Merged Scaffold for Orally Available Dual Soluble Epoxide Hydrolase/Peroxisome Proliferator-Activated Receptor γ Modulators” (J Med Chem, 2016).
# The source made the active and inactive calls. The calls are words filed in the database; no cut-off is given here.
# Key:
# [1] = target: T1, Peroxisome proliferator-activated receptor alpha (Homo sapiens) (UniProt Q07869); assay: Transactivation of human PPARalpha expressed in African green monkey COS7 cells at 10 uM incubated overnight by dual-glo luciferase reporter assay; assay type: cell-based; conditions: COS-7
# T1 sequence (whole entry): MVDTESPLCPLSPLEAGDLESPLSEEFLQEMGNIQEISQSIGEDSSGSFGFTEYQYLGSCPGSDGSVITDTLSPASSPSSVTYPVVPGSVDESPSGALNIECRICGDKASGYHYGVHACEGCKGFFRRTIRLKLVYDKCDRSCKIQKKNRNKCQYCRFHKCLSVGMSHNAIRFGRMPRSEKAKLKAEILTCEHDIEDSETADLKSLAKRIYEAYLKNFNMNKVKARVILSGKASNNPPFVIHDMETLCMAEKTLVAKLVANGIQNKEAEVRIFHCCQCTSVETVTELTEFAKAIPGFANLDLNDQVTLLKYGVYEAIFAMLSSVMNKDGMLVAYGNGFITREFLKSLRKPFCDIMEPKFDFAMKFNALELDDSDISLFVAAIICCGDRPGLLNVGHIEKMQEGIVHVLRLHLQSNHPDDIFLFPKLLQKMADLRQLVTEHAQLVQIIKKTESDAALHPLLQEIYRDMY
# [2] = target: T2, Peroxisome proliferator-activated receptor delta (Homo sapiens, UniProt Q03181); assay: Transactivation of human PPARdelta expressed in African green monkey COS7 cells incubated overnight by dual-glo luciferase reporter gene assay; assay type: cell-based; conditions: cos-7
# T2 sequence (Q03181 whole entry): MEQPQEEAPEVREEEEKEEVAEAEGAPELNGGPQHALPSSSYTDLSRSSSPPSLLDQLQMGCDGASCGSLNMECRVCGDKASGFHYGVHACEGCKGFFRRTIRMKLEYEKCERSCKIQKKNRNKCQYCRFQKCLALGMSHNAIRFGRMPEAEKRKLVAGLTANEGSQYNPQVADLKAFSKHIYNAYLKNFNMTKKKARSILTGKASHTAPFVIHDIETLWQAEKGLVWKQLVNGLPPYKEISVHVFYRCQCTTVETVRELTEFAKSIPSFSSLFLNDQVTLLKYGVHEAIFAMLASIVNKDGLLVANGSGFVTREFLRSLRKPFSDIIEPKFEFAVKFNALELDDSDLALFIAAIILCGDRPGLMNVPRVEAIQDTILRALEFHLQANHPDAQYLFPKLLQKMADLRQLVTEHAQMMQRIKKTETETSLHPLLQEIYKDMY
# [3] = target: T3, Bifunctional epoxide hydrolase 2 (Homo sapiens, UniProt P34913); assay: Inhibition of human recombinant sEH using PHOME as substrate preincubated for 30 mins followed by substrate addition measured for 30 mins by fluorescence-based assay
# T3 sequence (P34913 whole entry): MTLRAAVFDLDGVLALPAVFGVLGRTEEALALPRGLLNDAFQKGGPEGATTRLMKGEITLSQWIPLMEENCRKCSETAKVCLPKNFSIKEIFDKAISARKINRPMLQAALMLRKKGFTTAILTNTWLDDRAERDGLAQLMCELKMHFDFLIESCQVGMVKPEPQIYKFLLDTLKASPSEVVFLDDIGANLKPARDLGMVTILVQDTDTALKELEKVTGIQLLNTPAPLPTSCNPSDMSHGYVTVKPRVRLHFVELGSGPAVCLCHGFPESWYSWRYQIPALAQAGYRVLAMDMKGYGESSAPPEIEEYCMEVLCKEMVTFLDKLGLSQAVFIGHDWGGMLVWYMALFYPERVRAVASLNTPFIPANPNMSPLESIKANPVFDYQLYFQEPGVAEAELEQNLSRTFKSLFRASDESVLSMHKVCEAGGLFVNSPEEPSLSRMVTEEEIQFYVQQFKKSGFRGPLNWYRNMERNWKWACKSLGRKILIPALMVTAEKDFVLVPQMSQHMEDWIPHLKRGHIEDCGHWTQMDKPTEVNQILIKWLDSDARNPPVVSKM
# [4] = target: T4, Bifunctional epoxide hydrolase 2 (Homo sapiens) (UniProt P34913); assay: Inhibition of human recombinant sEH using PHOME as substrate at 10 uM preincubated for 30 mins followed by substrate addition measured for 30 mins by fluorescence-based assay
# T4 sequence (whole entry): T3 sequence (P34913 whole entry)
# [5] = target: T5, Peroxisome proliferator-activated receptor alpha (Homo sapiens, UniProt Q07869); conditions: cos-7
# T5 sequence (Q07869 whole entry): T1 sequence (whole entry)
# Description: Transactivation of human PPARalpha expressed in African green monkey COS7 cells incubated overnight by dual-glo luciferase reporter gene assay
# [6] = target: T1, Peroxisome proliferator-activated receptor alpha (Homo sapiens); assay: Transactivation of human PPARalpha expressed in African green monkey COS7 cells incubated overnight by dual-glo luciferase reporter assay relative to GW7647; assay type: cell-based; conditions: COS-7
# [7] = Solubility of the compound in water by microplate reader analysis; assay type: physicochemical
# [8] = target: T6, Peroxisome proliferator-activated receptor delta (Homo sapiens) (UniProt Q03181); assay: Transactivation of human PPARdelta expressed in African green monkey COS7 cells at 10 uM incubated overnight by dual-glo luciferase reporter assay; assay type: cell-based; conditions: COS-7
# T6 sequence (whole entry): T2 sequence (Q03181 whole entry)
# [9] = target: T7, Peroxisome proliferator-activated receptor gamma (Homo sapiens) (UniProt P37231); assay: Transactivation of human PPARgamma expressed in African green monkey COS7 cells at 10 uM incubated overnight by dual-glo luciferase reporter gene assay; assay type: cell-based; conditions: COS-7
# T7 sequence (whole entry): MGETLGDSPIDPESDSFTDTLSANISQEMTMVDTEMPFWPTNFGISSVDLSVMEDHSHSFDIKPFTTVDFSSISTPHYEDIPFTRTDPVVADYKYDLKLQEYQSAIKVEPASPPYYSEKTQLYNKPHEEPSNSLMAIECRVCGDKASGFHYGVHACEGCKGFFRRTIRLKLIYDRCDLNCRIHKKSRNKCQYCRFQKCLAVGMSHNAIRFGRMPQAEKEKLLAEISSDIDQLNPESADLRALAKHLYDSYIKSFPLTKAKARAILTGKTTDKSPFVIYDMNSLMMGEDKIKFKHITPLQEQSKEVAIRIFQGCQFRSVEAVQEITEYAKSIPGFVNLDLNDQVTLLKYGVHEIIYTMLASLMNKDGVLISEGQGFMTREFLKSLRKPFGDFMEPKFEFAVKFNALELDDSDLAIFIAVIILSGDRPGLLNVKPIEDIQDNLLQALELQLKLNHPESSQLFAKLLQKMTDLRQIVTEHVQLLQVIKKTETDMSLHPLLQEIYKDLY
smiles,measurement,setting,value
CCOC(=O)C(CC)Cc1ccc(C(=O)NCc2ccc(C(F)(F)F)cc2)cc1 (stereo not drawn),Activity,[1],22%
same,EC50,[2],Not Active
same,IC50,[3],570 nM
CCC(Cc1ccc(C(=O)NCc2ccccc2Cl)cc1)C(=O)O (stereo not drawn),inhibition,[4],20%
same,EC50,[5],Not Active
same,Emax,[6],inactive
same,EC50,[2],Not Active
CCOC(=O)C(CC)Cc1ccc(C(=O)NCc2ccccc2OC(F)(F)F)cc1 (stereo not drawn),solubility,[7],75 µM
same,EC50,[5],Not Active
same,Emax,[6],inactive
same,EC50,[2],Not Active
same,IC50,[3],30 nM
CCC(Cc1cccc(C(=O)NCc2ccccc2C(F)(F)F)c1)C(=O)O (stereo not drawn),Emax,[8],inactive
same,Activity,[1],34%
same,EC50,[2],Not Active
CCC(Cc1ccc(C(=O)NCc2ccc(F)cc2C(F)(F)F)cc1)C(=O)O (stereo not drawn),EC50,[5],Not Active
same,Emax,[6],inactive
same,EC50,[2],Not Active
same,IC50,[3],1200 nM
CCC(Cc1ccc(C(=O)NCc2ccc(F)cc2)cc1)C(=O)O (stereo not drawn),inhibition,[4],28%
same,EC50,[5],Not Active
same,Emax,[6],inactive
same,EC50,[2],Not Active
O=C(O)c1cccc(-c2ccc(C(=O)NCc3ccccc3C(F)(F)F)cc2)c1,Emax,[8],inactive
same,EC50,[5],Not Active
same,Emax,[6],inactive
same,Activity,[9],28%
same,EC50,[2],Not Active
CCOC(=O)C(CC)Cc1ccc(C(=O)NCc2ccccc2Cl)cc1 (stereo not drawn),EC50,[5],Not Active
same,Emax,[6],inactive
same,EC50,[2],Not Active
same,IC50,[3],3800 nM
CCC(Cc1ccc(C(=O)NCc2ccc(Cl)cc2)cc1)C(=O)O (stereo not drawn),solubility,[7],375 µM
same,EC50,[5],Not Active
same,Emax,[6],inactive
same,EC50,[2],Not Active
same,IC50,[3],1500 nM
CCOC(=O)C(CC)Cc1ccc(C(=O)NCc2ccc(Cl)cc2)cc1 (stereo not drawn),solubility,[7],7.5 µM
same,EC50,[5],Not Active
same,Emax,[6],inactive
same,EC50,[2],Not Active
same,IC50,[3],1700 nM
CCC(Cc1ccc(C(=O)NCc2ccccc2Br)cc1)C(=O)O (stereo not drawn),inhibition,[4],34%
same,solubility,[7],375 µM
same,EC50,[5],Not Active
same,Emax,[6],inactive
same,EC50,[2],Not Active
CCOC(=O)C(CC)Cc1ccc(C(=O)NCc2ccc(OC(F)(F)F)cc2)cc1 (stereo not drawn),EC50,[2],Not Active
same,IC50,[3],900 nM
CCOC(=O)C(CC)Cc1ccc(C(=O)NCc2ccc(OC)cc2C(F)(F)F)cc1 (stereo not drawn),Activity,[1],22%
same,EC50,[2],Not Active
same,IC50,[3],30 nM
O=C(O)c1ccc(-c2ccc(C(=O)NCc3ccccc3C(F)(F)F)cc2)cc1,Emax,[8],inactive
same,solubility,[7],3.75 µM
same,EC50,[5],Not Active
same,Emax,[6],inactive
same,Activity,[9],30%
same,EC50,[2],Not Active
CCOC(=O)C(CC)Cc1ccc(C(=O)NCc2ccc(F)cc2)cc1 (stereo not drawn),EC50,[5],Not Active
same,Emax,[6],inactive
same,EC50,[2],Not Active
same,IC50,[3],2200 nM
CCOC(=O)C(CC)Cc1ccc(C(=O)NCc2ccc(F)cc2C(F)(F)F)cc1 (stereo not drawn),EC50,[5],Not Active
same,Emax,[6],inactive
same,EC50,[2],Not Active
same,IC50,[3],120 nM
CCOC(=O)C(CC)Cc1ccc(C(=O)NCc2ccccc2)cc1 (stereo not drawn),EC50,[5],Not Active
same,Emax,[6],inactive
same,EC50,[2],Not Active
same,IC50,[3],8500 nM
CCOC(=O)C(CC)Cc1ccc(C(=O)NCc2ccc(OC)cc2)cc1 (stereo not drawn),solubility,[7],7.5 µM
same,EC50,[5],Not Active
same,Emax,[6],inactive
same,EC50,[2],Not Active
same,IC50,[3],620 nM
CCOC(=O)C(CC)Cc1ccc(C(=O)NCc2ccccc2C)cc1 (stereo not drawn),Activity,[1],15%
same,EC50,[2],Not Active
same,IC50,[3],900 nM
CCC(Cc1ccc(C(=O)NCc2ccccc2OC(F)(F)F)cc1)C(=O)O (stereo not drawn),inhibition,[4],23%
same,solubility,[7],375 µM
same,EC50,[5],Not Active
same,Emax,[6],inactive
same,EC50,[2],Not Active
CCC(Cc1ccc(C(=O)NCc2ccccc2)cc1)C(=O)O (stereo not drawn),inhibition,[4],4%
same,EC50,[5],Not Active
same,Emax,[6],inactive
same,EC50,[2],Not Active
CCC(Cc1ccc(C(=O)NCc2ccccc2C)cc1)C(=O)O (stereo not drawn),inhibition,[4],25%
same,EC50,[5],Not Active
same,Emax,[6],inactive
same,EC50,[2],Not Active
CCC(Cc1ccc(C(=O)NCc2ccc(OC(F)(F)F)cc2)cc1)C(=O)O (stereo not drawn),EC50,[2],Not Active
same,IC50,[3],14000 nM
CCC(Cc1ccc(C(=O)NCc2ccc(OC)cc2)cc1)C(=O)O (stereo not drawn),inhibition,[4],34%
same,solubility,[7],375 µM
same,EC50,[5],Not Active
same,Emax,[6],inactive
same,EC50,[2],Not Active
CON(C)C(=O)C1CC1c1ccc(C(=O)NCc2ccccc2C(F)(F)F)cc1 (stereo not drawn),Emax,[8],inactive
same,EC50,[5],Not Active
same,Emax,[6],inactive
same,Activity,[9],30%
same,EC50,[2],Not Active
